# Experimental data as given in ChEMBL document CHEMBL5303573, “Mapping human microbiome drug metabolism by gut bacteria and their genes” (Nature, 2019).
# Assay: The drug is tested on Bacteroides dorei strain: DSM17855 for biotransformation. The drug concentrations were measured before and after a 12-h incubation by liquid-chromatography-coupled mass spectrometry (LC–MS)
# Details: phocaeicola dorei, 2 µM
row,SMILES,Bacterial Biotransformation
1,CCCCC1=NC2(CCCC2)C(=O)N1Cc1ccc(-c2ccccc2-c2nnn[nH]2)cc1 [IRBESARTAN],Compound metabolized
2,C[C@@H](CO)NC(=O)[C@@H]1C=C2c3cccc4[nH]cc(c34)C[C@H]2N(C)C1.O=C(O)/C=C\C(=O)O [ERGONOVINE MALEATE],Compound metabolized
3,CS(=O)(=O)O.O.O.O.O=C1Cc2cc(CCN3CCN(c4nsc5ccccc45)CC3)c(Cl)cc2N1 [ZIPRASIDONE MESYLATE],Compound NOT metabolized

# Assay: The drug is tested on Bacteroides fragilis strain: HMW610 for biotransformation. The drug concentrations were measured before and after a 12-h incubation by liquid-chromatography-coupled mass spectrometry (LC–MS)
# Details: 2 µM
row,SMILES,Bacterial Biotransformation
1,CCCCC1=NC2(CCCC2)C(=O)N1Cc1ccc(-c2ccccc2-c2nnn[nH]2)cc1 [IRBESARTAN],Compound metabolized
2,C[C@@H](CO)NC(=O)[C@@H]1C=C2c3cccc4[nH]cc(c34)C[C@H]2N(C)C1.O=C(O)/C=C\C(=O)O [ERGONOVINE MALEATE],Compound metabolized
3,CS(=O)(=O)O.O.O.O.O=C1Cc2cc(CCN3CCN(c4nsc5ccccc45)CC3)c(Cl)cc2N1 [ZIPRASIDONE MESYLATE],Compound NOT metabolized

# Assay: The drug is tested on Edwardsiella tarda strain: ATCC23685 for biotransformation. The drug concentrations were measured before and after a 12-h incubation by liquid-chromatography-coupled mass spectrometry (LC–MS)
# Details: 2 µM
row,SMILES,Bacterial Biotransformation
1,CCCCC1=NC2(CCCC2)C(=O)N1Cc1ccc(-c2ccccc2-c2nnn[nH]2)cc1 [IRBESARTAN],Compound metabolized
2,C[C@@H](CO)NC(=O)[C@@H]1C=C2c3cccc4[nH]cc(c34)C[C@H]2N(C)C1.O=C(O)/C=C\C(=O)O [ERGONOVINE MALEATE],Compound NOT metabolized
3,CS(=O)(=O)O.O.O.O.O=C1Cc2cc(CCN3CCN(c4nsc5ccccc45)CC3)c(Cl)cc2N1 [ZIPRASIDONE MESYLATE],Compound NOT metabolized

# Details: bacteroides eggerthii, 12 h, 2 µM
# Description: The drug is tested on Bacteroides eggerthii strain: DSM20697 for biotransformation. The drug concentrations were measured before and after a 12-h incubation by liquid-chromatography-coupled mass spectrometry (LC–MS)
row,SMILES,Bacterial Biotransformation
1,CS(=O)(=O)O.O.O.O.O=C1Cc2cc(CCN3CCN(c4nsc5ccccc45)CC3)c(Cl)cc2N1 [ZIPRASIDONE MESYLATE],Compound NOT metabolized

# Assay: The drug is tested on Clostridium asparagiforme strain: DSM15981 for biotransformation. The drug concentrations were measured before and after a 12-h incubation by liquid-chromatography-coupled mass spectrometry (LC–MS)
# Format: ADME
# Set-up: dose 2 uM, timepoint 0 vs 12 hours
# Details: enterocloster asparagiformis, 2 µM
row,SMILES,Bacterial Biotransformation
1,CCCCC1=NC2(CCCC2)C(=O)N1Cc1ccc(-c2ccccc2-c2nnn[nH]2)cc1 [IRBESARTAN],Compound metabolized
2,C[C@@H](CO)NC(=O)[C@@H]1C=C2c3cccc4[nH]cc(c34)C[C@H]2N(C)C1.O=C(O)/C=C\C(=O)O [ERGONOVINE MALEATE],Compound metabolized
3,CS(=O)(=O)O.O.O.O.O=C1Cc2cc(CCN3CCN(c4nsc5ccccc45)CC3)c(Cl)cc2N1 [ZIPRASIDONE MESYLATE],Compound NOT metabolized

# Assay: The drug is tested on Collinsella intestinalis strain: DSM13280 for biotransformation. The drug concentrations were measured before and after a 12-h incubation by liquid-chromatography-coupled mass spectrometry (LC–MS)
# Details: 2 µM
row,SMILES,Bacterial Biotransformation
1,CCCCC1=NC2(CCCC2)C(=O)N1Cc1ccc(-c2ccccc2-c2nnn[nH]2)cc1 [IRBESARTAN],Compound NOT metabolized
2,CS(=O)(=O)O.O.O.O.O=C1Cc2cc(CCN3CCN(c4nsc5ccccc45)CC3)c(Cl)cc2N1 [ZIPRASIDONE MESYLATE],Compound NOT metabolized

# Assay: The drug is tested on Bacteroides coprophilus strain: DSM18228 for biotransformation. The drug concentrations were measured before and after a 12-h incubation by liquid-chromatography-coupled mass spectrometry (LC–MS)
# Details: 2 µM
row,SMILES,Bacterial Biotransformation
1,CCCCC1=NC2(CCCC2)C(=O)N1Cc1ccc(-c2ccccc2-c2nnn[nH]2)cc1 [IRBESARTAN],Compound NOT metabolized
2,C[C@@H](CO)NC(=O)[C@@H]1C=C2c3cccc4[nH]cc(c34)C[C@H]2N(C)C1.O=C(O)/C=C\C(=O)O [ERGONOVINE MALEATE],Compound metabolized
3,CS(=O)(=O)O.O.O.O.O=C1Cc2cc(CCN3CCN(c4nsc5ccccc45)CC3)c(Cl)cc2N1 [ZIPRASIDONE MESYLATE],Compound NOT metabolized

# Assay: The drug is tested on Providencia stuartii strain: ATCC25827 for biotransformation. The drug concentrations were measured before and after a 12-h incubation by liquid-chromatography-coupled mass spectrometry (LC–MS)
# Details: 2 µM
row,SMILES,Bacterial Biotransformation
1,CCCCC1=NC2(CCCC2)C(=O)N1Cc1ccc(-c2ccccc2-c2nnn[nH]2)cc1 [IRBESARTAN],Compound metabolized
2,C[C@@H](CO)NC(=O)[C@@H]1C=C2c3cccc4[nH]cc(c34)C[C@H]2N(C)C1.O=C(O)/C=C\C(=O)O [ERGONOVINE MALEATE],Compound metabolized
3,CS(=O)(=O)O.O.O.O.O=C1Cc2cc(CCN3CCN(c4nsc5ccccc45)CC3)c(Cl)cc2N1 [ZIPRASIDONE MESYLATE],Compound NOT metabolized

# Assay: The drug is tested on Anaerococcus hydrogenalis strain: DSM7454 for biotransformation. The drug concentrations were measured before and after a 12-h incubation by liquid-chromatography-coupled mass spectrometry (LC–MS)
# Details: 2 µM
row,SMILES,Bacterial Biotransformation
1,CCCCC1=NC2(CCCC2)C(=O)N1Cc1ccc(-c2ccccc2-c2nnn[nH]2)cc1 [IRBESARTAN],Compound metabolized
2,C[C@@H](CO)NC(=O)[C@@H]1C=C2c3cccc4[nH]cc(c34)C[C@H]2N(C)C1.O=C(O)/C=C\C(=O)O [ERGONOVINE MALEATE],Compound metabolized
3,CS(=O)(=O)O.O.O.O.O=C1Cc2cc(CCN3CCN(c4nsc5ccccc45)CC3)c(Cl)cc2N1 [ZIPRASIDONE MESYLATE],Compound NOT metabolized

# Assay: The drug is tested on Bifidobacterium longum subsp. Infantis strain: CCUG52486 for biotransformation. The drug concentrations were measured before and after a 12-h incubation by liquid-chromatography-coupled mass spectrometry (LC–MS)
# Details: 2 µM
row,SMILES,Bacterial Biotransformation
1,CCCCC1=NC2(CCCC2)C(=O)N1Cc1ccc(-c2ccccc2-c2nnn[nH]2)cc1 [IRBESARTAN],Compound metabolized
2,C[C@@H](CO)NC(=O)[C@@H]1C=C2c3cccc4[nH]cc(c34)C[C@H]2N(C)C1.O=C(O)/C=C\C(=O)O [ERGONOVINE MALEATE],Compound metabolized
3,CS(=O)(=O)O.O.O.O.O=C1Cc2cc(CCN3CCN(c4nsc5ccccc45)CC3)c(Cl)cc2N1 [ZIPRASIDONE MESYLATE],Compound NOT metabolized

# Details: enterocloster bolteae, 12 h, 2 µM
# Description: The drug is tested on Clostridium bolteae strain: ATCCBAA-613 for biotransformation. The drug concentrations were measured before and after a 12-h incubation by liquid-chromatography-coupled mass spectrometry (LC–MS)
row,SMILES,Bacterial Biotransformation
1,CCCCC1=NC2(CCCC2)C(=O)N1Cc1ccc(-c2ccccc2-c2nnn[nH]2)cc1 [IRBESARTAN],Compound metabolized
2,CS(=O)(=O)O.O.O.O.O=C1Cc2cc(CCN3CCN(c4nsc5ccccc45)CC3)c(Cl)cc2N1 [ZIPRASIDONE MESYLATE],Compound NOT metabolized

# Assay: The drug is tested on Collinsella aerofaciens strain: ATCC25986 for biotransformation. The drug concentrations were measured before and after a 12-h incubation by liquid-chromatography-coupled mass spectrometry (LC–MS)
# Details: 2 µM
row,SMILES,Bacterial Biotransformation
1,CCCCC1=NC2(CCCC2)C(=O)N1Cc1ccc(-c2ccccc2-c2nnn[nH]2)cc1 [IRBESARTAN],Compound metabolized
2,C[C@@H](CO)NC(=O)[C@@H]1C=C2c3cccc4[nH]cc(c34)C[C@H]2N(C)C1.O=C(O)/C=C\C(=O)O [ERGONOVINE MALEATE],Compound metabolized
3,CS(=O)(=O)O.O.O.O.O=C1Cc2cc(CCN3CCN(c4nsc5ccccc45)CC3)c(Cl)cc2N1 [ZIPRASIDONE MESYLATE],Compound NOT metabolized

# Assay: The drug is tested on Parabacteroides merdae strain: ATCC43184 for biotransformation. The drug concentrations were measured before and after a 12-h incubation by liquid-chromatography-coupled mass spectrometry (LC–MS)
# Details: 2 µM
row,SMILES,Bacterial Biotransformation
1,CCCCC1=NC2(CCCC2)C(=O)N1Cc1ccc(-c2ccccc2-c2nnn[nH]2)cc1 [IRBESARTAN],Compound metabolized
2,CS(=O)(=O)O.O.O.O.O=C1Cc2cc(CCN3CCN(c4nsc5ccccc45)CC3)c(Cl)cc2N1 [ZIPRASIDONE MESYLATE],Compound NOT metabolized

# Assay: The drug is tested on Bacteroides sp. WH2 strain: WH2 for biotransformation. The drug concentrations were measured before and after a 12-h incubation by liquid-chromatography-coupled mass spectrometry (LC–MS)
# Details: bacteroides sp. wh2, 12 h, 2 µM
row,SMILES,Bacterial Biotransformation
1,CCCCC1=NC2(CCCC2)C(=O)N1Cc1ccc(-c2ccccc2-c2nnn[nH]2)cc1 [IRBESARTAN],Compound metabolized
2,C[C@@H](CO)NC(=O)[C@@H]1C=C2c3cccc4[nH]cc(c34)C[C@H]2N(C)C1.O=C(O)/C=C\C(=O)O [ERGONOVINE MALEATE],Compound metabolized

# Details: bacteroides intestinalis, 12 h, 2 µM
# Description: The drug is tested on Bacteroides intestinalis strain: DSM17393 for biotransformation. The drug concentrations were measured before and after a 12-h incubation by liquid-chromatography-coupled mass spectrometry (LC–MS)
row,SMILES,Bacterial Biotransformation
1,CCCCC1=NC2(CCCC2)C(=O)N1Cc1ccc(-c2ccccc2-c2nnn[nH]2)cc1 [IRBESARTAN],Compound metabolized
2,C[C@@H](CO)NC(=O)[C@@H]1C=C2c3cccc4[nH]cc(c34)C[C@H]2N(C)C1.O=C(O)/C=C\C(=O)O [ERGONOVINE MALEATE],Compound metabolized
3,CS(=O)(=O)O.O.O.O.O=C1Cc2cc(CCN3CCN(c4nsc5ccccc45)CC3)c(Cl)cc2N1 [ZIPRASIDONE MESYLATE],Compound NOT metabolized

# Details: limosilactobacillus reuteri cf48-3a, 12 h, 2 µM
# Description: The drug is tested on Lactobacillus reuteri CF48-3A strain: BEI HM-102 for biotransformation. The drug concentrations were measured before and after a 12-h incubation by liquid-chromatography-coupled mass spectrometry (LC–MS)
row,SMILES,Bacterial Biotransformation
1,CCCCC1=NC2(CCCC2)C(=O)N1Cc1ccc(-c2ccccc2-c2nnn[nH]2)cc1 [IRBESARTAN],Compound metabolized
2,C[C@@H](CO)NC(=O)[C@@H]1C=C2c3cccc4[nH]cc(c34)C[C@H]2N(C)C1.O=C(O)/C=C\C(=O)O [ERGONOVINE MALEATE],Compound metabolized
3,CS(=O)(=O)O.O.O.O.O=C1Cc2cc(CCN3CCN(c4nsc5ccccc45)CC3)c(Cl)cc2N1 [ZIPRASIDONE MESYLATE],Compound NOT metabolized

# Details: bacteroides stercoris, 12 h, 2 µM
# Description: The drug is tested on Bacteroides stercoris strain: ATCC43183 for biotransformation. The drug concentrations were measured before and after a 12-h incubation by liquid-chromatography-coupled mass spectrometry (LC–MS)
row,SMILES,Bacterial Biotransformation
1,CCCCC1=NC2(CCCC2)C(=O)N1Cc1ccc(-c2ccccc2-c2nnn[nH]2)cc1 [IRBESARTAN],Compound metabolized
2,C[C@@H](CO)NC(=O)[C@@H]1C=C2c3cccc4[nH]cc(c34)C[C@H]2N(C)C1.O=C(O)/C=C\C(=O)O [ERGONOVINE MALEATE],Compound NOT metabolized
3,CS(=O)(=O)O.O.O.O.O=C1Cc2cc(CCN3CCN(c4nsc5ccccc45)CC3)c(Cl)cc2N1 [ZIPRASIDONE MESYLATE],Compound NOT metabolized

# Details: bacteroides thetaiotaomicron, 12 h, 2 µM
# Description: The drug is tested on Bacteroides thetaiotaomicron strain: 7330 for biotransformation. The drug concentrations were measured before and after a 12-h incubation by liquid-chromatography-coupled mass spectrometry (LC–MS)
row,SMILES,Bacterial Biotransformation
1,CCCCC1=NC2(CCCC2)C(=O)N1Cc1ccc(-c2ccccc2-c2nnn[nH]2)cc1 [IRBESARTAN],Compound metabolized
2,C[C@@H](CO)NC(=O)[C@@H]1C=C2c3cccc4[nH]cc(c34)C[C@H]2N(C)C1.O=C(O)/C=C\C(=O)O [ERGONOVINE MALEATE],Compound metabolized
3,CS(=O)(=O)O.O.O.O.O=C1Cc2cc(CCN3CCN(c4nsc5ccccc45)CC3)c(Cl)cc2N1 [ZIPRASIDONE MESYLATE],Compound NOT metabolized

# Assay: The drug is tested on Bacteroides pectinophilus strain: ATCC43243 for biotransformation. The drug concentrations were measured before and after a 12-h incubation by liquid-chromatography-coupled mass spectrometry (LC–MS)
# Details: 2 µM
row,SMILES,Bacterial Biotransformation
1,CCCCC1=NC2(CCCC2)C(=O)N1Cc1ccc(-c2ccccc2-c2nnn[nH]2)cc1 [IRBESARTAN],Compound metabolized
2,C[C@@H](CO)NC(=O)[C@@H]1C=C2c3cccc4[nH]cc(c34)C[C@H]2N(C)C1.O=C(O)/C=C\C(=O)O [ERGONOVINE MALEATE],Compound metabolized
3,CS(=O)(=O)O.O.O.O.O=C1Cc2cc(CCN3CCN(c4nsc5ccccc45)CC3)c(Cl)cc2N1 [ZIPRASIDONE MESYLATE],Compound NOT metabolized

# Assay: The drug is tested on Ruminococcus gnavus strain: ATCC29149 for biotransformation. The drug concentrations were measured before and after a 12-h incubation by liquid-chromatography-coupled mass spectrometry (LC–MS)
# Details: mediterraneibacter gnavus, 2 µM
row,SMILES,Bacterial Biotransformation
1,CCCCC1=NC2(CCCC2)C(=O)N1Cc1ccc(-c2ccccc2-c2nnn[nH]2)cc1 [IRBESARTAN],Compound NOT metabolized
2,CS(=O)(=O)O.O.O.O.O=C1Cc2cc(CCN3CCN(c4nsc5ccccc45)CC3)c(Cl)cc2N1 [ZIPRASIDONE MESYLATE],Compound NOT metabolized
